Source: ChEMBL document CHEMBL4507263, “Data for DCP probe BAY-474” (2021)
Calls of active or inactive are those of the source. The calls are words filed in the database; no cut-off is given here.

Legend:
[1] = molecular target: Protein-tyrosine kinase 2-beta (Homo sapiens) (UniProt Q14289); assay: Pyk2 (h) Millipore kinase activity assay; conditions: Compound concentration 1.0 uM
Hs746T = assay: Cell proliferation with Hs746T cells; type: functional; conditions: Homo sapiens
[2] = molecular target: LIM domain kinase 1 (Homo sapiens) (UniProt P53667); assay: LIMK1 (h) Millipore kinase activity assay; conditions: Compound concentration 1.0 uM
[3] = molecular target: Serine/threonine-protein kinase 3 (Homo sapiens) (UniProt Q13188); assay: MST2 (h) Millipore kinase activity assay; conditions: Compound concentration 1.0 uM
[4] = molecular target: Receptor-interacting serine/threonine-protein kinase 2 (Homo sapiens) (UniProt O43353); assay: RIPK2 (h) Millipore kinase activity assay; conditions: Compound concentration 1.0 uM
[5] = molecular target: Serine/threonine-protein kinase STK11 (Homo sapiens) (UniProt Q15831); assay: LKB1 (h) Millipore kinase activity assay; conditions: Compound concentration 1.0 uM
[6] = molecular target: Tyrosine-protein kinase BTK (Homo sapiens) (UniProt Q06187); assay: BTK (h) Millipore kinase activity assay; conditions: Compound concentration 1.0 uM
[7] = molecular target: Hepatocyte growth factor receptor (Homo sapiens, UniProt P08581); assay: Cellular mechanistic assay using […] cells and p-MET; type: cell-based, MKN-45
[8] = molecular target: Protein kinase C iota type (Homo sapiens) (UniProt P41743); assay: PKCiota (h) Millipore kinase activity assay; conditions: Compound concentration 1.0 uM
[9] = molecular target: Melatonin receptor type 1A (Homo sapiens) (UniProt P48039); assay: Inhibition of Melatonin MT1 at 10 µM in the Eurofins-Panlabs radioligand binding assay (Eurofins_assay_251600); set-up: ligand concentration 0.05 nM; conditions: Compound concentration 10.0 uM
[10] = molecular target: Serine/threonine-protein kinase WNK3 (Homo sapiens) (UniProt Q9BYP7); assay: WNK3 (h) Millipore kinase activity assay; conditions: Compound concentration 1.0 uM
[11] = molecular target: Myosin light chain kinase (Homo sapiens) (UniProt Q32MK0); assay: MLCK (h) Millipore kinase activity assay; conditions: Compound concentration 1.0 uM
[12] = molecular target: Eukaryotic elongation factor 2 kinase (Homo sapiens) (UniProt O00418); assay: eEF-2K (h) Millipore kinase activity assay; conditions: Compound concentration 1.0 uM
[13] = molecular target: Serine/threonine-protein kinase 4 (Homo sapiens) (UniProt Q13043); assay: MST1 (h) Millipore kinase activity assay; conditions: Compound concentration 1.0 uM
[14] = molecular target: Protein-tyrosine kinase 6 (Homo sapiens) (UniProt Q13882); assay: BRK (h) Millipore kinase activity assay; conditions: Compound concentration 1.0 uM
[15] = molecular target: Macrophage-stimulating protein receptor (Homo sapiens) (UniProt Q04912); assay: Ron (h) Millipore kinase activity assay; conditions: Compound concentration 1.0 uM
[16] = molecular target: Tyrosine-protein kinase Mer (Homo sapiens) (UniProt Q12866); assay: Mer (h) Millipore kinase activity assay; conditions: Compound concentration 1.0 uM
[17] = molecular target: Dual specificity testis-specific protein kinase 1 (Homo sapiens) (UniProt Q15569); conditions: Compound concentration 1000.0 nM
[18] = molecular target: Cyclin-dependent kinase 16 (Homo sapiens) (UniProt Q00536); conditions: Compound concentration 1000.0 nM
[19] = molecular target: Calcium/calmodulin-dependent protein kinase type 1B (Homo sapiens) (UniProt Q6P2M8); conditions: Compound concentration 1000.0 nM
[20] = molecular target: Misshapen-like kinase 1 (Homo sapiens) (UniProt Q8N4C8); conditions: Compound concentration 1000.0 nM
[21] = molecular target: Rho-associated protein kinase 2 (Homo sapiens) (UniProt O75116); conditions: Compound concentration 1000.0 nM
[22] = molecular target: Vascular endothelial growth factor receptor 3 (Homo sapiens) (UniProt P35916); conditions: Compound concentration 1000.0 nM
[23] = molecular target: Myosin-IIIb (Homo sapiens) (UniProt Q8WXR4); conditions: Compound concentration 1000.0 nM
[24] = molecular target: 3-phosphoinositide-dependent protein kinase 1 (Homo sapiens) (UniProt O15530); conditions: Compound concentration 1000.0 nM
[25] = molecular target: 1-phosphatidylinositol 3-phosphate 5-kinase (Homo sapiens) (UniProt Q9Y2I7); conditions: Compound concentration 1000.0 nM
[26] = molecular target: Tyrosine-protein kinase Fes/Fps (Homo sapiens) (UniProt P07332); conditions: Compound concentration 1000.0 nM
[27] = test system: Tyrosine-protein kinase ABL1 (Homo sapiens), P00519 [T315I]; conditions: Compound concentration 1000.0 nM
[28] = molecular target: Insulin receptor-related protein (Homo sapiens) (UniProt P14616); conditions: Compound concentration 1000.0 nM
[29] = molecular target: BDNF/NT-3 growth factors receptor (Homo sapiens) (UniProt Q16620); conditions: Compound concentration 1000.0 nM
[30] = molecular target: Inhibitor of nuclear factor kappa-B kinase subunit epsilon (Homo sapiens) (UniProt Q14164); conditions: Compound concentration 1000.0 nM
[31] = molecular target: Ephrin type-A receptor 4 (Homo sapiens) (UniProt P54764); conditions: Compound concentration 1000.0 nM
[32] = test system: Epidermal growth factor receptor (Homo sapiens), P00533 [UNDEFINED MUTATION]; conditions: Compound concentration 1000.0 nM
[33] = molecular target: Cyclin-dependent kinase 14 (Homo sapiens) (UniProt O94921); conditions: Compound concentration 1000.0 nM
[34] = molecular target: 5-hydroxytryptamine receptor 1D (Homo sapiens) (UniProt P28221); conditions: Compound concentration 10.0 uM
[35] = molecular target: Phosphatidylinositol 5-phosphate 4-kinase type-2 gamma (Homo sapiens) (UniProt Q8TBX8); conditions: Compound concentration 1000.0 nM
[36] = molecular target: Serine/threonine-protein kinase Nek4 (Homo sapiens) (UniProt P51957); conditions: Compound concentration 1000.0 nM
[37] = molecular target: Serine/threonine-protein kinase 36 (Homo sapiens) (UniProt Q9NRP7); conditions: Compound concentration 1000.0 nM
[38] = molecular target: Tyrosine-protein kinase Lck (Homo sapiens) (UniProt P06239); conditions: Compound concentration 1000.0 nM
[39] = molecular target: Fibroblast growth factor receptor 1 (Homo sapiens) (UniProt P11362); conditions: Compound concentration 1000.0 nM
[40] = molecular target: Casein kinase II subunit alpha' (Homo sapiens) (UniProt P19784); conditions: Compound concentration 1000.0 nM
[41] = molecular target: Tyrosine-protein kinase ABL2 (Homo sapiens) (UniProt P42684); conditions: Compound concentration 1000.0 nM
[42] = molecular target: Serine/threonine-protein kinase ULK1 (Homo sapiens) (UniProt O75385); conditions: Compound concentration 1000.0 nM
[43] = molecular target: Mitogen-activated protein kinase 6 (Homo sapiens) (UniProt Q16659); conditions: Compound concentration 1000.0 nM
[44] = molecular target: Maternal embryonic leucine zipper kinase (Homo sapiens) (UniProt Q14680); conditions: Compound concentration 1000.0 nM

Casein kinase II subunit alpha' (Homo sapiens), sequence (P19784 whole entry, looked up): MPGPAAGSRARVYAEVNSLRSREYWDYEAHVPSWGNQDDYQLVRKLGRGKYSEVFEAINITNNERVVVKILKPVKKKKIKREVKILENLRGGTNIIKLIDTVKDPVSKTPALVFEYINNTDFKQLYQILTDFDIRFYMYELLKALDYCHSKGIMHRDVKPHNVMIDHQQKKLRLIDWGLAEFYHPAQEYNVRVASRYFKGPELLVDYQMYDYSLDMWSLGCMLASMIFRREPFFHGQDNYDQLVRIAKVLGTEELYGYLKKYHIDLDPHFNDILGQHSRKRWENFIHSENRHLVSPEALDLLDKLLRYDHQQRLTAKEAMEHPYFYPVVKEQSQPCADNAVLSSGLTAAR
Ephrin type-A receptor 4 (Homo sapiens), sequence (P54764 whole entry): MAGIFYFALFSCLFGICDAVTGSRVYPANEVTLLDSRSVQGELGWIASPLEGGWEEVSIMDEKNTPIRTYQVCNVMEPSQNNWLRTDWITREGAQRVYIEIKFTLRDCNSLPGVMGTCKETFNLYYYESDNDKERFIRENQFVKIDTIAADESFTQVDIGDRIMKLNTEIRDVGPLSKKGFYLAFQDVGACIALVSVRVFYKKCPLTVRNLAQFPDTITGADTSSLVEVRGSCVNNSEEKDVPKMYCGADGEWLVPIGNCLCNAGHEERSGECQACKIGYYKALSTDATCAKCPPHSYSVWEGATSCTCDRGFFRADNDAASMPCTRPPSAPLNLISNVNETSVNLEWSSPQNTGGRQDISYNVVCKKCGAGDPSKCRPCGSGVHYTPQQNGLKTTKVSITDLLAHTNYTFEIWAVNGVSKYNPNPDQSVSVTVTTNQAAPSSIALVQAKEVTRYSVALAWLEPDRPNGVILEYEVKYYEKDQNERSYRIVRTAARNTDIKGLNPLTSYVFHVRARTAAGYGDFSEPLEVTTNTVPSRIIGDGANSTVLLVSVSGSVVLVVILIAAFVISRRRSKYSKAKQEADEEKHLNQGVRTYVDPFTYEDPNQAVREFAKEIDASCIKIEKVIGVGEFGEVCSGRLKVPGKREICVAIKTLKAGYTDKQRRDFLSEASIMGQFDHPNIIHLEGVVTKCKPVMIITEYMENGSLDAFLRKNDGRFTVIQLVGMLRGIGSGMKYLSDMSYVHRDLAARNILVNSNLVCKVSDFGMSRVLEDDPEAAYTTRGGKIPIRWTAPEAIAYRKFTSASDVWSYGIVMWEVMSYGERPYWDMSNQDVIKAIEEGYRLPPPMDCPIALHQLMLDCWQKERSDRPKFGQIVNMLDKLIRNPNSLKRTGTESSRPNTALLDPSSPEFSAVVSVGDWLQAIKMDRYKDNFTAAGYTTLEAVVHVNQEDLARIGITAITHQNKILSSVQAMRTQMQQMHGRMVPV
Receptor-interacting serine/threonine-protein kinase 2 (Homo sapiens), sequence (O43353 whole entry): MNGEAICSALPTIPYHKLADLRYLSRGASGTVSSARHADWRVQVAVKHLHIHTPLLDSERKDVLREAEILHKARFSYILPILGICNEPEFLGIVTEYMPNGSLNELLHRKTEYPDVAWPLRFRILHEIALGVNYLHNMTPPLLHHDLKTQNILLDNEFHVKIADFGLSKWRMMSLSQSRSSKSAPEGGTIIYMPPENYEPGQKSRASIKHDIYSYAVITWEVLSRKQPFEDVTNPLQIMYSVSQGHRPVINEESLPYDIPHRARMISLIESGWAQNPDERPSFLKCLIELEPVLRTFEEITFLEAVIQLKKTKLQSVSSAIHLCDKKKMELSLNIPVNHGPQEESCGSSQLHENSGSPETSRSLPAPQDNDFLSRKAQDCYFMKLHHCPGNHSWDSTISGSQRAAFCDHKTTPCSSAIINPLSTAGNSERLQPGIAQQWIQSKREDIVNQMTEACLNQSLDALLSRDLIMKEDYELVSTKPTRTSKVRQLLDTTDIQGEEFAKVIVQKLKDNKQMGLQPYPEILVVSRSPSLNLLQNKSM
Vascular endothelial growth factor receptor 3 (Homo sapiens), sequence (P35916 whole entry): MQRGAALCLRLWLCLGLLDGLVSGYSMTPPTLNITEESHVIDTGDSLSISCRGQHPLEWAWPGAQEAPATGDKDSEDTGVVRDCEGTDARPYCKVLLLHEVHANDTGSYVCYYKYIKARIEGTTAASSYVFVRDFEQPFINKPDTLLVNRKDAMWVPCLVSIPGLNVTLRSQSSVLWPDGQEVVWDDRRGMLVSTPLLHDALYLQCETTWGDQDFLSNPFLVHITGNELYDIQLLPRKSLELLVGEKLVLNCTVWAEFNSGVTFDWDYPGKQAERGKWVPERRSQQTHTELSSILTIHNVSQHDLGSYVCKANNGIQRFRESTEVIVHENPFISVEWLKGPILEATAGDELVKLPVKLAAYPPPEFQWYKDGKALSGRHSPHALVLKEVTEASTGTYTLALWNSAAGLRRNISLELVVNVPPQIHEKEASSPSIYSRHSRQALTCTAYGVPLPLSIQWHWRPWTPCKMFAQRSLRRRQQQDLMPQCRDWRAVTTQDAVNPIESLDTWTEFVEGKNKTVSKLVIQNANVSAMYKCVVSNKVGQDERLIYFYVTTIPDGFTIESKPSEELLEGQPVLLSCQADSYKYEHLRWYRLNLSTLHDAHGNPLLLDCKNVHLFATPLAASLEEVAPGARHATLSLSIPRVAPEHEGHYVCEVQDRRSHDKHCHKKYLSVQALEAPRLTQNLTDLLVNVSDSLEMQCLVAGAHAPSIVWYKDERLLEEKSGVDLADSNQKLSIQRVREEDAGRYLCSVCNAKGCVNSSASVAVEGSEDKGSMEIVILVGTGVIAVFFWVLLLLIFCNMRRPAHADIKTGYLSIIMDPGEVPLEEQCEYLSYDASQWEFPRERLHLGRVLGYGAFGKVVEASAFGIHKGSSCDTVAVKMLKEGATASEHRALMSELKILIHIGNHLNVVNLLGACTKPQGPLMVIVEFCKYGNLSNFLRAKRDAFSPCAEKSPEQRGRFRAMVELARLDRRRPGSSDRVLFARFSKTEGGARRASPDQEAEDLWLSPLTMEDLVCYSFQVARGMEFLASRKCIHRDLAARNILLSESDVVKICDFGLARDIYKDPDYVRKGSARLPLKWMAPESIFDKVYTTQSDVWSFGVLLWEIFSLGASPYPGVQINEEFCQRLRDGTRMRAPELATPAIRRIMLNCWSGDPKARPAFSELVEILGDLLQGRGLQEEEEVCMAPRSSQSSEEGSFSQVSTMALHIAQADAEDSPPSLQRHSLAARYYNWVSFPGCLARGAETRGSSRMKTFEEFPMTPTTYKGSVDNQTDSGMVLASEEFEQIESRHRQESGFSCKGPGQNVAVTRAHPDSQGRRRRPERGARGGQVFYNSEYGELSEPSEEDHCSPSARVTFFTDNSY
Melatonin receptor type 1A (Homo sapiens), sequence (P48039 whole entry): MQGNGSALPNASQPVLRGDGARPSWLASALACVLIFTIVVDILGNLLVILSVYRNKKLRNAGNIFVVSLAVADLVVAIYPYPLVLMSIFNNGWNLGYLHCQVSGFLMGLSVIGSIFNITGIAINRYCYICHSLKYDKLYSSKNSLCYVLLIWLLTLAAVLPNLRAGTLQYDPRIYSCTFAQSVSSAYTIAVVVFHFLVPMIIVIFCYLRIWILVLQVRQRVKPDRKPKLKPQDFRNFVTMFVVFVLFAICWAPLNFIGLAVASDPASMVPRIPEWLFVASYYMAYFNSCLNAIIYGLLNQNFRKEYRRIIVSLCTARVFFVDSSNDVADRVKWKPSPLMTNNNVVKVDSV
Calcium/calmodulin-dependent protein kinase type 1B (Homo sapiens), sequence (Q6P2M8 whole entry): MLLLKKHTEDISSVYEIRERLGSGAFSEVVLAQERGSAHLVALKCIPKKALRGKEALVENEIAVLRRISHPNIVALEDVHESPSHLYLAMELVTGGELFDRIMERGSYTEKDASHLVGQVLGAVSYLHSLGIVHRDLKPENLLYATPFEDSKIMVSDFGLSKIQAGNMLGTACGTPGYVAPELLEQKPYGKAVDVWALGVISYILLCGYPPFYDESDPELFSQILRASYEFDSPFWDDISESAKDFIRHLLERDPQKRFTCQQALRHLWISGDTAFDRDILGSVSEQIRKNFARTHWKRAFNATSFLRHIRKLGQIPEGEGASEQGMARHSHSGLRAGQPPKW
Tyrosine-protein kinase Fes/Fps (Homo sapiens), sequence (P07332 whole entry): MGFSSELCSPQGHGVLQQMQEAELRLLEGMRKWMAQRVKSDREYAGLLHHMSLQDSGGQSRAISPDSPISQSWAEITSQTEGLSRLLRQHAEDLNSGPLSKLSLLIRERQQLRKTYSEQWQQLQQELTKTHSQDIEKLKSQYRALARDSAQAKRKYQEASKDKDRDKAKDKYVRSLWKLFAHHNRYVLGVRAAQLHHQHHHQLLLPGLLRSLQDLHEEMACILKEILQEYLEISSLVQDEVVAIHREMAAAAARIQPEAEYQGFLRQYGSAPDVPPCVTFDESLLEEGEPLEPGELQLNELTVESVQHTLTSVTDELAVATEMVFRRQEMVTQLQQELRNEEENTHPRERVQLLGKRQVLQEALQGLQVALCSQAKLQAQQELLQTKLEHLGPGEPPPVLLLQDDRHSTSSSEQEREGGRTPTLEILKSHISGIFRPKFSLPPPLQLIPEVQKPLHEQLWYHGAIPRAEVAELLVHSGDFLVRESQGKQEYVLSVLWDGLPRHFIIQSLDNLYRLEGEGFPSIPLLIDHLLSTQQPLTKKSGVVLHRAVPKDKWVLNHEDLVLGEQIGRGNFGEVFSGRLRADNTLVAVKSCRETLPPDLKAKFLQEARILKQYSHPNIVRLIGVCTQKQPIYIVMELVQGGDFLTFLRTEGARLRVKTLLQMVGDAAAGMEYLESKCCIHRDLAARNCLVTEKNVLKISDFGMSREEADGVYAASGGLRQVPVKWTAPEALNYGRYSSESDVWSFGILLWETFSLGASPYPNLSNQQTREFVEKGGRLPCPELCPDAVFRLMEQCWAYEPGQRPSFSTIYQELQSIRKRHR

SMILES: CC1=C(C#N)C(c2ccc3[nH]nc(C)c3c2)C(C#N)=C(C)N1 [BAY-474]
- inhibition [1]: 17%
- IC90 (Hs746T): 56 nM (active)
- inhibition [2]: 2%
- inhibition [3]: 7%
- inhibition [4]: 5%
- inhibition [5]: -8%
- inhibition [6]: -8%
- IC50 [7]: 2.9 nM (active)
- inhibition [8]: -7%
- inhibition [9]: 2%
- inhibition [10]: -5%
- inhibition [11]: 9%
- inhibition [12]: -5%
- inhibition [13]: 19%
- inhibition [14]: -7%
- inhibition [15]: 8%
- inhibition [16]: 12%

SMILES: CC1=C(C#N)[C@@H](c2ccc3[nH]nc(C)c3c2)C(C#N)=C(c2ccc(Cl)cc2)N1 [BAY-827]
- residual activity [17]: 100%
- residual activity [18]: 88.9%
- residual activity [19]: 98.5%
- residual activity [20]: 77%
- residual activity [21]: 91.9%
- residual activity [22]: 89.5%
- residual activity [23]: 78%
- residual activity [24]: 98.2%
- residual activity [25]: 100%
- residual activity [26]: 100%
- residual activity [27]: 100%
- residual activity [28]: 100%
- residual activity [29]: 85.2%
- residual activity [30]: 100%
- residual activity [31]: 96.4%
- residual activity [32]: 100%
- residual activity [33]: 94.4%
- inhibition [34]: 4.2%
- residual activity [35]: 100%
- residual activity [36]: 90.1%
- residual activity [37]: 95.9%
- residual activity [38]: 100%
- residual activity [39]: 86.6%
- residual activity [40]: 100%
- residual activity [41]: 100%
- residual activity [42]: 100%
- residual activity [43]: 100%
- residual activity [44]: 100%
